5 molecules from article PMC11036396 (2024) can be followed below.

The test system of assay [1] is Trp aptamer (Cy5-labelled, Trp aptamer sensor) (DNA, aptamer) AGCACGTTGGTTAGGTCAGGTTTGGGTTTCGTGC
Briefly: strand-displacement fluorescence. Particulars: 2.7 mM KCl, 5 mM MgCl2, 500 mM NaCl.

Assay [2] shares this test system. The experiment in a line: strand-displacement fluorescence titration (Langmuir fit). Particulars: 2.7 mM KCl, 5 mM MgCl2, 500 mM NaCl; TAB pH 7.4, 25 °C; displaces CS-10-BHQ2 quencher strand; 0.5 μM aptamer, 1.25 μM CS-10; apparent.
[3] abbreviates: TAB pH 7.4, displaces CS-10-BHQ2 quencher strand, distinguished from its precursor.

SMILES strings stand for the structures.

Turning to `N[C@H](Cc1c[nH]c2ccccc12)C(=O)O`, the binding result in assay [1] (TAB pH 7.4, 25 °C, displaces CS-10-BHQ2 quencher strand, 5 mM compound) was “yes”. `N[C@@H](Cc1c[nH]c2ccccc12)C(=O)O`: the Ksens in assay [2] was 3.3 [2.8–4.6, 95% credible region] mM. For `COc1ccc2[nH]cc(C[C@H](N)C(=O)O)c2c1`, in assay [1] (setting [3]), the binding result was “yes”. Same read-out and setting: as for `N[C@@H](Cc1c[nH]c2ccc(F)cc12)C(=O)O`, the entry is “yes”. Consider `N[C@@H](Cc1ccccc1)C(=O)O`, for which, in assay [1] (TAB pH 7.4, 25 °C, CS-10-BHQ2 quencher strand, highest concentration 5 mM), the binding result is reported as “no”.
